Assay results: ChEMBL document CHEMBL1201862, “PubChem BioAssay data set” (2004)
Activity calls are given as the source filed them.

Tests used:
[1] = HeLa cell cytotoxicity, dose response, cytotoxicity control for MgcRacGAP inhibitor project (AID 624300); assay type: functional
Trypsin = Trypsin (Sus scrofa, UniProt P00761); experiment: porcine trypsin inhibitors, dose response, selectivity assay for Rce1 protease inhibitor project, biochemical, quenched peptide fluorescence, cherry-pick (AID 488789)
[2] = target: T1, Rac GTPase-activating protein 1 (Homo sapiens, UniProt Q9H0H5); experiment: MgcRacGAP GTPase-activating activity inhibitors, confirmation, biochemical, ADP Hunter fluorescence, primary and confirmatory (AID 624330); assay type: functional
T1 sequence (Q9H0H5 whole entry): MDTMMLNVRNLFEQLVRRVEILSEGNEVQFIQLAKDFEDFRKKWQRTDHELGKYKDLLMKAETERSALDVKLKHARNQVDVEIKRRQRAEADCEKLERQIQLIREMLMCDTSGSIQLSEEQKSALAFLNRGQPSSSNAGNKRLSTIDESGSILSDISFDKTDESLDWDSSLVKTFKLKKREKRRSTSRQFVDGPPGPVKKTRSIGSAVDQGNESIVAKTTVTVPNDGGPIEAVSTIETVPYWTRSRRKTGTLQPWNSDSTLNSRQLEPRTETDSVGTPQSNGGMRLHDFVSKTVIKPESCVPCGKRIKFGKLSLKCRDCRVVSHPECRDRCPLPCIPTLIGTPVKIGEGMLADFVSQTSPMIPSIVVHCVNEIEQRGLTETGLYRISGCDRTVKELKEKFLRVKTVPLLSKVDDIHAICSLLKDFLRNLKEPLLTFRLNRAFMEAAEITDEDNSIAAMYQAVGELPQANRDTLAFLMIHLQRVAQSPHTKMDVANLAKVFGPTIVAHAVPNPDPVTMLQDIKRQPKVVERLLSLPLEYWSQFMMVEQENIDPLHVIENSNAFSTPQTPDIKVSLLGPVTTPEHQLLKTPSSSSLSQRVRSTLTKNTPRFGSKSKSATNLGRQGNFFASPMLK

CAAX prenyl protease 2 [3] = target: CAAX prenyl protease 2 (Saccharomyces cerevisiae S288c, UniProt Q03530); assay type: biochemical
CAAX prenyl protease 2 [4] = target: T2, CAAX prenyl protease 2 (Homo sapiens, UniProt Q9Y256); experiment: human Rce1 protease inhibitors, dose response, biochemical, yeast membranes, quenched-peptide fluorescence, cherry-pick (AID 588849)
T2 sequence (Q9Y256 whole entry): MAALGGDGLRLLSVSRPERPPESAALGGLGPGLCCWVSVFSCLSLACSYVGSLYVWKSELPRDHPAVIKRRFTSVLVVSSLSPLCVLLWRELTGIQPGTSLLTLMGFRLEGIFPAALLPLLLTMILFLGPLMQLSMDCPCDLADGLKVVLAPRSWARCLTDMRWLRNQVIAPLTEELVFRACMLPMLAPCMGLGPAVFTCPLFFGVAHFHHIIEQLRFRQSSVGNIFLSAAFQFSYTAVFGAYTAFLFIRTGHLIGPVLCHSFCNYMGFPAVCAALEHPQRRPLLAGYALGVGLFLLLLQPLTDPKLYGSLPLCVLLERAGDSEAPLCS

[5] = target: T3, E3 ubiquitin-protein ligase XIAP (Homo sapiens, UniProt P98170); experiment: Counter Screen using XIAP-Bir3 for Chemical Antagonists of Bir1/2 domains of IAP-family anti-apoptotic proteins. [Related pubchem assays (depositor defined):AID1018, AID1449, AID1514, AID1638, AID1749, AID1750, AID488957, AID488963]
[6] = target: Luciferin 4-monooxygenase (Photinus pyralis, UniProt P08659); experiment: firefly luciferase enzyme inhibitors, dose response, biochemical, luminescence (AID 1891)
[7] = Luminescence Cell-Based Dose Confirmation HTS to Identify Inhibitors of Platelet Dense Granule Release. [Related pubchem assays: 1663 (Primary HTS), 1678 (Summary of Project)]; assay type: functional
[8] = target: T3, E3 ubiquitin-protein ligase XIAP; experiment: XIAP antagonists, biochemical, IAP family, fluorescence polarization (AID 1018); assay type: functional
[9] = target: T4, Probable nicotinate-nucleotide adenylyltransferase (Staphylococcus aureus (strain N315), UniProt P65502); assay type: functional, Staphylococcus aureus subsp. aureus N315; settings: read-out: IC50_Mean;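 on IC50 Mean: confirmatory dose-response retesting of NadD inhibitor hits first found in an ultra-high-throughput screen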
[10] = HIV-1 Env-mediated cell fusion inhibitors, dose response, CCR5-tropic Env (AID 2279); assay type: functional
[11] = target: Envelope glycoprotein gp160 (Human immunodeficiency virus 1, UniProt Q6QLK5); experiment: inhibitors of HIV fusion peptide binding, primary screen, biochemical, uHTS, fluorescence dequenching (AID 1986)
ELAV-like protein 1 = ELAV-like protein 1 (Homo sapiens, UniProt Q15717); experiment: Identify HuR specific inhibitors.; assay type: functional
[12] = target: T4, Probable nicotinate-nucleotide adenylyltransferase; assay type: functional, Staphylococcus aureus subsp. aureus N315
[13] = target: T5, Kappa-type opioid receptor (Homo sapiens, UniProt P41145); experiment: SAR analysis of Antagonists of the Kappa Opioid Receptor (KOR) using an Image-Based Assay - Set 4. [Related pubchem assays (depositor defined):AID1777, AID1785]; assay type: functional
[14] = target: Delta-type opioid receptor (Homo sapiens, UniProt P41143); experiment: SAR Analysis of Antagonists of the DOR Receptor using an Image-Based Assay - Set 3. [Related pubchem assays (depositor defined):AID1777, AID1785]; assay type: functional;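 further: U2OS cells expressing DOR1 and beta-arrestin GFP stimulated with 100 nM SNC80; imaging of GFP-tagged beta-arrestin moving into spots after receptor activation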
Mu-type opioid receptor = Mu-type opioid receptor (Homo sapiens, UniProt P35372); experiment: SAR Analysis of Antagonists of the MOR Receptor using an Image-Based Assay - Set 3. [Related pubchem assays (depositor defined):AID1777, AID1785, AID1786, AID1966, AID2133, AID2136, AID2284, AID2285, AID2420]; assay type: functional
[15] = target: T5, Kappa-type opioid receptor; experiment: SAR analysis of small molecule antagonists of the kappa opioid receptor via a luminescent beta-arrestin assay - Set 4. [Related pubchem assays (depositor defined):AID1777, AID1778, AID1785, AID1786, AID1966, AID2133, AID2136, AID2285]; assay type: functional
[16] = target: Induced myeloid leukemia cell differentiation protein Mcl-1 (Homo sapiens, UniProt Q07820); assay type: functional
[17] = target: T6, Heat shock factor protein 1 (Mus musculus, UniProt P38532); experiment: HSF1 potentiators in luciferase reporter cells, confirmation, cell-based, NIH3T3, luminescence, dose retest (AID 435004); assay type: functional;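 further: stress induced by proteasome inhibitor MG132 added 30 min after compound; luciferase reporter driven by HSF1 response element in NIH3T3 cells; actives raise luminescence as potentiators of the MG132 stress response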
T6 sequence (P38532 whole entry): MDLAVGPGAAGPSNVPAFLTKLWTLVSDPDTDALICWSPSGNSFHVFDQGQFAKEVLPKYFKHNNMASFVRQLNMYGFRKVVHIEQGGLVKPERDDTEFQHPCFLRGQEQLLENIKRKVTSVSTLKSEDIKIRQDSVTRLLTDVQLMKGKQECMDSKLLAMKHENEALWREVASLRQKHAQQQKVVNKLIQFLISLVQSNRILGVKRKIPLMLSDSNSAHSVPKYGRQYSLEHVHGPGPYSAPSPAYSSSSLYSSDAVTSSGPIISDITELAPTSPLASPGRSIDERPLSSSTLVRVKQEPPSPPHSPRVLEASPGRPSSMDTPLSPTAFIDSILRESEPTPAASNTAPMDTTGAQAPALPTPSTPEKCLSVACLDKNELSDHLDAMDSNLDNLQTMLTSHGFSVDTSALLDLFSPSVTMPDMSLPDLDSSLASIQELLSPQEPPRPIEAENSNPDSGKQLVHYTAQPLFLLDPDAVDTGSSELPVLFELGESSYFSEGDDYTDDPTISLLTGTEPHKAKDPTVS

Troponin, cardiac muscle = Troponin, cardiac muscle (Homo sapiens, UniProt P19429+P45379+P63316); experiment: Fluorescence-based biochemical high throughput dose response assay for activators of the calcium sensitivity of cardiac Regulated Thin Filaments (RTF). [Related pubchem assays (depositor defined):AID493008, AID493018, AID504382, AID504383]; assay type: protein-complex assay

T3 sequence (P98170 whole entry): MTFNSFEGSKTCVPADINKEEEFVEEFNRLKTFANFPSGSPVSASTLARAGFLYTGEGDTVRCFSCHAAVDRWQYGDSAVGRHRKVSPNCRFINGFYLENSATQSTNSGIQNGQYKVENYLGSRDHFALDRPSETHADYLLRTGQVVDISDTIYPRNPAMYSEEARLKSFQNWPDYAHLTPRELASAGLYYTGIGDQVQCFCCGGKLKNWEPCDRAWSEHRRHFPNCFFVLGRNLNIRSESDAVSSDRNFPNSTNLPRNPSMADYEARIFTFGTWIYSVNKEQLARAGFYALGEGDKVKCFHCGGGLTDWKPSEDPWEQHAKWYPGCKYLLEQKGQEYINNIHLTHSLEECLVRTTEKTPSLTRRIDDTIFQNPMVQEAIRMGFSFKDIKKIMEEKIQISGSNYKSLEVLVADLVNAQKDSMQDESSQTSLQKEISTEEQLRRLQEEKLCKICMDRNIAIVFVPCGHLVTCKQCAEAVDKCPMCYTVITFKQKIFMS
T5 sequence (P41145 whole entry): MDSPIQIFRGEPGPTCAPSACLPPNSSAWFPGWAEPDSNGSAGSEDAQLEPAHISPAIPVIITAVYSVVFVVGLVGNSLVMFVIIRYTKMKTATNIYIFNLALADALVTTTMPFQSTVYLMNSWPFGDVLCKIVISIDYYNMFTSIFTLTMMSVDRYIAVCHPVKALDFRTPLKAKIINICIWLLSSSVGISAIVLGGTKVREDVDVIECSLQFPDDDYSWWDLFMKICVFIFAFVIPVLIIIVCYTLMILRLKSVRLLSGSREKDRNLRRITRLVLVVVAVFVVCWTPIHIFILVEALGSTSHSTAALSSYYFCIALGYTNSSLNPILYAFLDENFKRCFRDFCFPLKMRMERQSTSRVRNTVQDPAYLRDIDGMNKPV
T4 sequence (P65502 whole entry, the tested form may be a part): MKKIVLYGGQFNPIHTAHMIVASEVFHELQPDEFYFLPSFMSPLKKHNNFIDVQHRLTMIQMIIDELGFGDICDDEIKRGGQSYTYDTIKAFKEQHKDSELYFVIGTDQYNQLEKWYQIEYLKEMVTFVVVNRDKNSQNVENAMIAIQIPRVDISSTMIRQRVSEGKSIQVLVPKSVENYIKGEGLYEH
Sequence of Induced myeloid leukemia cell differentiation protein Mcl-1 (Q07820 whole entry): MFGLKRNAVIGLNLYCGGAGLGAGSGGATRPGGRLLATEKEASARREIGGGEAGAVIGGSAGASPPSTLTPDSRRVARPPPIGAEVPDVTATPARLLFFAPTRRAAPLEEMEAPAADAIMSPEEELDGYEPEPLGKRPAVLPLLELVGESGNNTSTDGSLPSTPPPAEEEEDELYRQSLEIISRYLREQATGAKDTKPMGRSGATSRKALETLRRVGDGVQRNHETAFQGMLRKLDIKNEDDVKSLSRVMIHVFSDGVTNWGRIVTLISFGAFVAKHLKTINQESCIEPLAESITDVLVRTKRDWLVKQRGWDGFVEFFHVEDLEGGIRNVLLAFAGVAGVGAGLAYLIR
Sequence of Trypsin (P00761 whole entry): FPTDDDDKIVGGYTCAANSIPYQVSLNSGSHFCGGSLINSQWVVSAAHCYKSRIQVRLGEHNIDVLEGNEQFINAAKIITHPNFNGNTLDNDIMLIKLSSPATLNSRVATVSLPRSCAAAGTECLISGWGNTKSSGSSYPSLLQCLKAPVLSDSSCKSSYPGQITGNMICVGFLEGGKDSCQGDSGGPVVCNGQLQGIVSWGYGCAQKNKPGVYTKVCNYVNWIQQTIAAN
Sequence of Mu-type opioid receptor (P35372 whole entry): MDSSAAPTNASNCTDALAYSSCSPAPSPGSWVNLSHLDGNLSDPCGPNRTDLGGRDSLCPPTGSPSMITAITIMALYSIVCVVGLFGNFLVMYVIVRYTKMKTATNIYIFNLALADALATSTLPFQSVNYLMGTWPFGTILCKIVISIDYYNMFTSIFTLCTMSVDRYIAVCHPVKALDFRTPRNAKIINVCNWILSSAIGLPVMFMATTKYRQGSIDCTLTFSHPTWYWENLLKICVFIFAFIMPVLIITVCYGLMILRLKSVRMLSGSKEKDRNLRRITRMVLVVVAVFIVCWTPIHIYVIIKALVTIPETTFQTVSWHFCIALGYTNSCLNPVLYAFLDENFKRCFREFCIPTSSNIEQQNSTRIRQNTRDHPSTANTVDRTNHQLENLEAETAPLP
Sequence of Luciferin 4-monooxygenase (P08659 whole entry): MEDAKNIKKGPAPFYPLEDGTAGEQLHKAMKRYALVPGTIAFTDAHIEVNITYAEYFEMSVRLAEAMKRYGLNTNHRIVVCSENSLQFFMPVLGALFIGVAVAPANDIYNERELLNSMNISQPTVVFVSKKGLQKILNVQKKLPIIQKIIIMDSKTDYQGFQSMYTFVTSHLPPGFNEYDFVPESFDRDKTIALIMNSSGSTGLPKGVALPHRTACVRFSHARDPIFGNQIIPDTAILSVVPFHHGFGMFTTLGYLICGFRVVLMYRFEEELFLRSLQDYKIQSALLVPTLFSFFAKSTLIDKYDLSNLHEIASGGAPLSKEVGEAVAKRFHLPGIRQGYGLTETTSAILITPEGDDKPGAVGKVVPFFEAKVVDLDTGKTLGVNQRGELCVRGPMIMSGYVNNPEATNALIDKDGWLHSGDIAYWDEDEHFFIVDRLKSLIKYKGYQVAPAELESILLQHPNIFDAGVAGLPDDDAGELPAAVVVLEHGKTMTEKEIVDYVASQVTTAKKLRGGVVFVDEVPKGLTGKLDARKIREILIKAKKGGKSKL
Sequence of CAAX prenyl protease 2 (Saccharomyces cerevisiae S288c, UniProt Q03530) (Q03530 whole entry): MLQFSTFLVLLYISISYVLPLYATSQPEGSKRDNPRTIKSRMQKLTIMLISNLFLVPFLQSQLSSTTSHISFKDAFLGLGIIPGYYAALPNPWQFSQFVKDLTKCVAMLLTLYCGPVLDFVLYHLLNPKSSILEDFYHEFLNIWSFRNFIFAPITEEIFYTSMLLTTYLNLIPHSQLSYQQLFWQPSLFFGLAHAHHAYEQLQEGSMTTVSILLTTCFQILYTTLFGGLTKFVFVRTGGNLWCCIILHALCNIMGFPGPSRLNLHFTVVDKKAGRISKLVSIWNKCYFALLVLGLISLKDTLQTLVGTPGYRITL
Sequence of Envelope glycoprotein gp160 (Q6QLK5 whole entry, the tested form may be a part): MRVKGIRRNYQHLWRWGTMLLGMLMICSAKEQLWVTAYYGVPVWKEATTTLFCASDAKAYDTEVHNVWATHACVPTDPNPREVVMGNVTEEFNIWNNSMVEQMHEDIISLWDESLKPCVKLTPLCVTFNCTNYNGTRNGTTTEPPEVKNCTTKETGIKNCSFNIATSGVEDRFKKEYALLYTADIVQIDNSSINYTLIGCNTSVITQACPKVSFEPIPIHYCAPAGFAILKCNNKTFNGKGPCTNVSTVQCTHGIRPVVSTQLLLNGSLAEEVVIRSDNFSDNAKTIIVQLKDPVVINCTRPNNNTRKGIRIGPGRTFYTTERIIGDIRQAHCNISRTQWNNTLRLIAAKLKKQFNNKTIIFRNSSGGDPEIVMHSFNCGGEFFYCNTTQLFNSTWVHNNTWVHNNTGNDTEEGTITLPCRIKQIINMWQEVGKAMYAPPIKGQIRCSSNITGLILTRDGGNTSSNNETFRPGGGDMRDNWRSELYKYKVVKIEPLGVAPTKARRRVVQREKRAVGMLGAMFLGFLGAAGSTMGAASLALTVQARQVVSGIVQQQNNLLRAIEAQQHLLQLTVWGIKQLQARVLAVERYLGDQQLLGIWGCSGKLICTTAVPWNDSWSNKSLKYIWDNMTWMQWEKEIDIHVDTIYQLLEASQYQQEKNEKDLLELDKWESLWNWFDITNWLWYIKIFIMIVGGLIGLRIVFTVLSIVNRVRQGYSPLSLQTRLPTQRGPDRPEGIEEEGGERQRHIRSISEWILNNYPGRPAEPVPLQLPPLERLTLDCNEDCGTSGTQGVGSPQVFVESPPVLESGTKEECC
Sequence of ELAV-like protein 1 (Q15717 whole entry): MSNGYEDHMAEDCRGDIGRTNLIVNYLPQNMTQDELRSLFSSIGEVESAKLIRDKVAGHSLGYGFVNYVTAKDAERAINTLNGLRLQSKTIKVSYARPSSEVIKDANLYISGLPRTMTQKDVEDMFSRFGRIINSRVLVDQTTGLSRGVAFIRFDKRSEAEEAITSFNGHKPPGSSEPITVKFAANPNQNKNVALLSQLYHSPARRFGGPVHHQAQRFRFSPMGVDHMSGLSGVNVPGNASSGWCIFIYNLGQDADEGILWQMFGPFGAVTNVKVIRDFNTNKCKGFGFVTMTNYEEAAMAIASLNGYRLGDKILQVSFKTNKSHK
Sequence of Delta-type opioid receptor (P41143 whole entry): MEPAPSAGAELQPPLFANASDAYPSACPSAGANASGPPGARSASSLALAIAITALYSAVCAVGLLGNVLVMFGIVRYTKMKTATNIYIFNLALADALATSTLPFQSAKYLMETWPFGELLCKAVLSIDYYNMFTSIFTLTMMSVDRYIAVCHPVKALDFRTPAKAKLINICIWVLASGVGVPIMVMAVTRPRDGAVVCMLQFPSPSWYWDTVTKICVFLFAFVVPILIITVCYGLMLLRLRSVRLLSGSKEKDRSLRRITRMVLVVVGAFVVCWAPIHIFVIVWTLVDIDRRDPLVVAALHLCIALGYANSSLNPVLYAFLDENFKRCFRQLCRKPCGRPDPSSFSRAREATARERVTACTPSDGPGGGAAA

COc1cc(-c2nc3ccccn3c2NCC2CCCO2)ccc1O (stereo unspecified)
CC50 [1]: 100 µM (active)
AC50 (Trypsin): 12.8 µM (active)
IC50 [2]: 49.9 µM (active)
AC50 (CAAX prenyl protease 2 [3]): 23.4 µM (active)
AC50 (CAAX prenyl protease 2 [4]): 6.82 µM (active)

Cc1ccnc(N2C(=O)c3ccccc3C2O)c1 (stereo unspecified)
IC50 [5]: > 100 µM (inactive)
EC50 [6]: 27.7 µM (active)
EC50 [7]: 6.49 µM (active)
IC50 [8]: > 100 µM (not active)

COC1C(OC(=O)c2ccc(C)[nH]2)C(O)C(Oc2ccc3c(O)c(NC(=O)c4ccc(O)c(CC=C(C)C)c4)c(=O)oc3c2Cl)OC1(C)C (stereo unspecified)
IC50 [9]: 7.01 µM (active)
IC50 [10]: 38.4 µM (active)
IC50 [11]: 13 µM (active)
IC50 (ELAV-like protein 1): 41.9 µM (active)
IC50 [12]: 2.1 µM (active)

CCCc1ccc(S(=O)(=O)NCc2ccc(C(=O)NCCN(Cc3ccccc3)C(C)C)cc2)cc1
IC50 [13]: 2.25 µM (active)
IC50 [14]: > 32 µM (inactive)
IC50 (Mu-type opioid receptor): > 32 µM (inactive)
IC50 [15]: 2 µM (active)

COc1ccc(N/C=C2\C(=O)CCc3c2oc2cc(Cl)c(O)c(Cl)c32)cc1
IC50 [16]: 4.32 µM (active)
EC50 [17]: > 260 µM (inactive)
EC50 (Troponin, cardiac muscle): 3.93 µM (active)
